The values below come from ChEMBL document CHEMBL5579812, “"PROTAC" modified dihydroquinolizinones (DHQs) that cause degradation of PAPD-5 and inhibition of hepatitis A virus and hepatitis B virus, in vitro” (Bioorg Med Chem Lett, 2024).

Series [1] concerns Huh-7.5. In words: Effect on PAPD5 expression in human Huh7.5 cells at 250 nM incubated for 24 hrs by Western blot analysis. Type of series: functional, cell-based. (Immunoblotting shows a protein as a band on a membrane.)
Series [2] relates to Huh-7.5. In words: Effect on PAPD7 expression in human Huh7.5 cells at 250 nM incubated for 24 hrs by Western blot analysis. Type of series: functional, cell-based.
The subject of series [3] is Huh-7.5. In words: Effect on PAPD5 expression in human Huh7.5 cells at 1 uM incubated for 24 hrs by Western blot analysis. Type of series: functional, cell-based.
Series [4] deals with Huh-7.5. In words: Effect on actin expression in human Huh7.5 cells at 1 uM incubated for 24 hrs by Western blot analysis. Type of series: functional, cell-based.
In series [5] the test system is Huh-7.5. Nature of the series: Effect on PAPD7 expression in human Huh7.5 cells at 1 uM incubated for 24 hrs by Western blot analysis. Type of series: functional, cell-based.
Series [6] concerns HepG2.2.15. In words: Inhibition of 2.1 to 3.5 kb HBV mRNA accumulation in human HepG2.2.15 cells at 1 to 2 nM treated for 5 days by northern blot analysis. Type of series: functional, cell-based. The conditions noted are these: Hepatitis B virus, dose 1-2 nM, time 5.0 day.
Series [7] in a line: Inhibition HBsAg secretion in human HepG2.2.15 cells treated for 3 days followed by medium replacement without compound measured after 2 days by CLIA. Type of series: functional, cell-based. The note with it: HepG2 2.2.15.
The subject of another series is Hepatovirus A. Nature of the series: Inhibition of replication of Hepatitis A virus expressing 18f-NLuc infected in human Huh7.5 cells treated for 48 hrs by luminescence based analysis. Type of series: functional, organism-based. The note with it: for IC50: Huh7.5, 48 h.
Series [8] is described as follows: Cytotoxicity against human Huh7.5 cells. Type of series: toxicity, cell-based, Huh-7.5.
The test system of series [9] is HepG2.2.15. Nature of the series: Inhibition of 2.1 to 3.5 kb HBV mRNA accumulation in human HepG2.2.15 cells at 7.5 to 15 uM treated for 5 days by northern blot analysis. Type of series: functional, cell-based. The note with it: Hepatitis B virus, dose 7.5-15 µM, time 5.0 day.
The target in series [10] is T1, Protein cereblon/Terminal nucleotidyltransferase 4B (Homo sapiens) (UniProt Q96SW2+Q8NDF8). Nature of the series: PROTAC activity at CRBN/PAPD5 in human Huh7.5 cells assessed as protein degradation at 10 uM incubated for 24 hrs by Western blot analysis. Type of series: cell-based.
In series [11] the test system is Huh-7.5. In words: Effect on actin expression in human Huh7.5 cells at 10 uM incubated for 24 hrs by Western blot analysis. Type of series: functional, cell-based.
The subject of series [12] is Huh-7.5. In words: Effect on PAPD7 expression in human Huh7.5 cells at 10 uM incubated for 24 hrs by Western blot analysis. Type of series: functional, cell-based.
The target of series [13] is T1, Protein cereblon/Terminal nucleotidyltransferase 4B (Homo sapiens). Nature of the series: PROTAC activity at CRBN/PAPD5 in human Huh7.5 cells assessed as protein degradation at 10 uM incubated for 24 hrs in presence of epoxomicin by Western blot analysis. Type of series: cell-based.
Series [14] in a line: Inhibition HBsAg secretion in human Huh-7 cells harboring pHBV1.3 treated for 2 days followed by replacement of medium containing compound measured after 4 days by CLIA. Type of series: functional, cell-based.
A short description of series [15]: Cytotoxicity against human Huh-7 cells assessed as cell viability by Cell Titer Glo assay. Type of series: toxicity, cell-based. (ATP-based viability assays read luminescence as a measure of living cells.)

The structures appear in SMILES notation. Activity calls are given as the source filed them. The rule behind the calls is not given here.

T1 sequence (Q8NDF8 whole entry, looked up): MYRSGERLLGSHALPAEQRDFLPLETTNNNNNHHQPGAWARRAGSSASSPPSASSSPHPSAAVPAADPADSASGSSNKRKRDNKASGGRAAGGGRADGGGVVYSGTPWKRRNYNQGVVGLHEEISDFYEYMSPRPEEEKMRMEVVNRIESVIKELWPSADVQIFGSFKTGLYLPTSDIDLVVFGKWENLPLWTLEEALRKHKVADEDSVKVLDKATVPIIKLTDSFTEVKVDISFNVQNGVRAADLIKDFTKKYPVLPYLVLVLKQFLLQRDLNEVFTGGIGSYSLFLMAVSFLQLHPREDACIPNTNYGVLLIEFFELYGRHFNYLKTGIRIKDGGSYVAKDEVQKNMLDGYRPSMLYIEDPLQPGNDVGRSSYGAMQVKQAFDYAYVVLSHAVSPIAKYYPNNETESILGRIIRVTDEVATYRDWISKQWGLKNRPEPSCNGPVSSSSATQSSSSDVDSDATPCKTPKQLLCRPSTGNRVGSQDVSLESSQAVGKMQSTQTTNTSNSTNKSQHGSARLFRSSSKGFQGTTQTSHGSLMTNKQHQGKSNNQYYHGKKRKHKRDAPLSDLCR
T1 sequence (Q96SW2 whole entry, looked up): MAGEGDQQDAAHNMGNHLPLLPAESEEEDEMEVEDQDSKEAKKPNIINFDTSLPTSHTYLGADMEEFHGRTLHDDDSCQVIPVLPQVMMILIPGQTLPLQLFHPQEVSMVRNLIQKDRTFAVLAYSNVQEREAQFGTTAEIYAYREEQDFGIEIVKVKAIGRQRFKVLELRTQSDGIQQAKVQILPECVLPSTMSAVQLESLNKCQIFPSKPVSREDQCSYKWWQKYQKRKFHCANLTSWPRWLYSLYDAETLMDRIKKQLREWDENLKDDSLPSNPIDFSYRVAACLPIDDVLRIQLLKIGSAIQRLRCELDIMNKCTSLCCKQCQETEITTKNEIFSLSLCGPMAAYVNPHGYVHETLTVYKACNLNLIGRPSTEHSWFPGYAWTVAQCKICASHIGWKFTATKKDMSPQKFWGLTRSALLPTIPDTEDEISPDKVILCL

`CC[C@H](C)[C@H](NC(=O)[C@H]([C@@H](C)CC)N(C)C(C)=O)C(=O)N[C@H](C(=O)N[C@@H](CC(C)C)C(=O)[C@@]1(C)CO1)[C@@H](C)O`: the outcome with Huh-7.5 [1] and with Huh-7.5 [2] was inactive.
`COCCCOc1cc2c(cc1OC)-c1cc(=O)c(C(=O)O)cn1[C@H](C(C)C)C2`: the result with Huh-7.5 [3], in the series on Huh-7.5 [4] and in the series on Huh-7.5 [5] was inactive. Moreover, the inhibition result with HepG2.2.15 [6] is “Active”. For the same molecule, it took 0.001 µM to reach half-maximal inhibition in series [7] (IC50).
Take `COc1cc2c(cc1OCCCNC(=O)CCOCCOCCOCCNc1cccc3c1C(=O)N(C1CCC(=O)NC1=O)C3=O)C[C@@H](C(C)C)n1cc(C(=O)O)c(=O)cc1-2` (some centres not stated): in the series on Hepatovirus A, the inhibition entry is “Dose-Dependent Effect” and half-maximal inhibition (IC50) required 0.576 µM. Moreover, the CC50 (usually the concentration that lowers cell viability or growth by half) in series [8] was above 50 µM. Further, the inhibition entry in the series on HepG2.2.15 [9] was “Active”.
As for `COc1cc2c(cc1OCCCNC(=O)CCOCCOCCOCCOCCOCCOCCNc1cccc3c1C(=O)N(C1CCC(=O)NC1=O)C3=O)C[C@@H](C(C)C)n1cc(C(=O)O)c(=O)cc1-2` (some centres not stated), the inhibition entry in the series with Hepatovirus A is “Dose-Dependent Effect”. The figures for the IC50 (in the series with Hepatovirus A; in series [7]; in series [14]) were 0.277 µM, 16.2 µM and 10.6 µM, respectively. Besides, the CC50 in series [8] and in series [15] was above 50 µM throughout. Also, in series [10], the outcome was Active. Further, the result (with Huh-7.5 [11]; with Huh-7.5 [12]; in [13]) was inactive. Moreover, in the series with HepG2.2.15 [9], the inhibition result was “Active”.
